Measured values reported in publication PMC5395518, “Design, synthesis, and biological evaluation of the novel glycyrrhetinic acid-cinnamoyl hybrids as anti-tumor agents” (Chemistry Central Journal, 2016).

What was measured:
HT-29 cells = experiment: MTT cytotoxicity assay, HT-29; type: cell-based, human; conditions: 72 h, mean ± SD (n = 3)
From the text: (§1) HepG2 (human hepatocellular carcinoma), Hela (human cervical cancer), HT-29 (human colon carcinoma), MDCK (Madin–Darby canine kidney), H9C2 (rat myocardial cells) and HY926 were purchased from the Chinese Academy of Medical Sciences and Peking Union Medical College. All of these cell lines were maintained in RPMI-1640 (DMEM) supplemented with 10% (v/v) fetal bovine serum (FBS) and 1% (v/v) penicillin/streptomycin (Thermo Technologies, New York, NY, USA) under a humidified atmosphere containing 5% CO2 at 37 °C. To provide stock solutions which were used to prepare various concentrations of treatment media, GA and hybrids were added a volume of DMSO.
(§2) The cytotoxicity of these compounds was evaluated on three human cancer cell lines (HepG2, HT-29, Hela) and three non-tumor cells lines (MDCK, HY926, H9C2) and MTT assay was performed to detect the cell proliferation. Simply, exponentially growing cells were cultured in 96-well plates (3 × 10^3 cells/well). And the plates were placed in a humidified atmosphere for 72 h at 37 °C with 5% CO2. After added MTT solution (5 mg/mL) 20 μL to each well, the plate was incubated for a further 4 h. Then the cell supernatant was removed and 150 μL DMSO was added. Finally, the absorbance was determined at wavelength of 490 nm with the ELISA. Wells without drugs were used to be blanks. The IC50 values were calculated using Logit-method. The following Eq. (1) was proposed to calculate the inhibitory rate of cell growth:1 %inhibition=1-Sample group OD/Control group OD×100%

Hela cells [1] = experiment: MTT cytotoxicity assay, Hela; type: cell-based, human
From the text: as §1, §2

Kunming mice = experiment: Acute toxicity by gavage in Kunming mice; type: in vivo
From the text: Forty healthy Kunming mice (weight 18–22 g) of both sexes were purchased from Beijing Vital River Laboratory Animal Technology Company Limited (Beijing, China). The mice were divided into two groups matched the same weight and size, along with the standard in our previous studies. In briefly, 20 mice were selected for blank control group, and the other 20 mice were for the treated group. All experiments followed the guidelines of “Regulation for the Administration of Affairs Concerning Experimental Animals” (State Council of China, 1988). All animals were placed in cages, fed with standard rodent chow and water ad libitum under a 12-h light–dark cycle. Before the experiments, the mice were deprived of food for 12 h but provided water freely. Then the treated group of both sexes were administered a single dose of 8a (0.3 mL/10 g) via gavage twice a day, which was prepared in advance in bean oil solution with the maximum suspended dose (50 mg/mL). The total administration of 8a was 3 g/kg during 8 h. And the blank control group were given bean oil by oral administration only. The mice’s general behavior was continuously noted in the first hour, intermittently observed in the next 4 h, and thereafter over a period of 24 h. Observations of the signs for toxicity and deaths were last for 14 days. The mortality response and behavior of toxic effects of mice were recorded.

HY926 cells = experiment: MTT cytotoxicity assay, HY926 (non-tumor); type: cell-based
From the text: as §1, §2

Hela cells [2] = experiment: H33342 staining on Hela cells; type: cell-based, human; conditions: 5, 10, 20 μM, 72 h, with increase of concentration
Procedure: H33342 staining was used to confirm whether the characteristic nuclear changes were associated with 8a in this assay. Hela cells were cultured in 12-well plates (5 × 10^4 cells/well), which were placed in a humidified atmosphere for 24 h at 37 °C with 5% CO2. And then each group was added 8a, making the final concentration of 0, 5, 10, 20 μM respectively. After 72 h, cell culture medium was discarded and the cells were washed twice with PBS. H33342 staining was then performed for 2 min and washed with water. In the end, the cells were observed and photographed under inverted phase-contrast microscope at a magnification of 200×.

MDCK cells = experiment: MTT cytotoxicity assay, MDCK (non-tumor); type: cell-based, canine
From the text: as §1, §2

HepG2 cells = experiment: MTT cytotoxicity assay, HepG2; type: cell-based, human; conditions: 72 h, mean ± SD (n = 3)
From the text: as §1, §2

Hela cells [3] = experiment: Annexin V-FITC/PI flow cytometric apoptosis assay; type: cell-based, human; conditions: 72 h, control 7.5%
Procedure: Hela cells were seeded in 12-well plates (5 × 10^4 cells/well), which were placed in a humidified atmosphere for 24 h at 37 °C with 5% CO2. After treated with different concentrations of 8a (5, 10, 20 μM) for 72 h, all cells were collected respectively with the right amount of trypsin (without EDTA) digestion. After added 1 mL cold PBS, the cells were gently suspended and centrifuged at 1000 rpm for 5 min. The harvested cells were suspended in 200 μL binding buffer which contained 10 μL Annexin V-FITC and PI. After avoided light reaction for 15 min, the cells were analyzed with a flow cytometry (BD, USA).

caspase-3 = experiment: Caspase-3 activity assay (Ac-DEVD-pNA cleavage) in Hela cells; type: cell-based, human; conditions: 5, 10, 20 μM, 48 h
Procedure: Hela cells were seeded in dishes at a density of 5 × 10^5 cell per dish and the dishes were kept at 37 °C with 5% CO2 for 24 h. On the next day, various concentration of 8a (0, 5, 10, 20 μM) were added to the cells and cultured for 48 h. Pre-cooled PBS were added twice to wash the cells. After removal of the medium, ice-cold cell lysis buffer was added, and the cells were further incubated in an ice bath for 15 min, which contribute to the protein acquisition. The caspase-3 activity kit (Beyotime Institute of Biotechnology, Beijing, China) was used to determine the activity of caspase-3. A total of 50 μL cell lysates, 40 μL reaction buffer and 10 μL caspase-3 substrate (Ac-DEVDpNA) (2 mM) were added to 96-well plates. After 30 min of incubation, absorbance was measured at 405 nm, and samples were quantified with ELISA.

Hela cells [4] = experiment: Giemsa staining on Hela cells; type: cell-based, human; conditions: 5, 10, 20 μM, 72 h, with increase of concentration
Procedure: Hela cells were seeded in 12-well plates (5 × 10^3 cells/well), and then they were cultured for 24 h at 37 °C with 5% CO2. After that each group was added 8a, making the final concentration of 0, 5, 10, 20 μM respectively. After 72 h, the cell supernatant was removed and the cells were cleaned with PBS twice, then kept in PBS/ethanol (1:1) for 2 min and fixed with cold ethanol for 10 min. After discarding ethanol, the cells were stained with Giemsa (Giemsa, Molecular Probes/Invitrogen Life Technologies, Carlsbad, CA, USA) stained for 5 min and washed with water. In the end, the cells were observed and photographed under inverted phase-contrast microscope at a magnification of 200×.

H9C2 cells = experiment: MTT cytotoxicity assay, H9C2 (non-tumor); type: cell-based, rat
From the text: as §1, §2

[5] = MTT, 72 h, mean ± SD (n = 3), non-tumor cells

`COc1ccc(/C=C/C(=O)OC2CCC3(C)C(CCC4(C)C3C(=O)C=C3C5CC(C)(C(=O)O)CCC5(C)CCC34C)C2(C)C)c(OC)c1OC` (stereo not drawn) [Compound 8a, (2,3,4-Trimethoxy) cinnamoyl-3β-hydroxy-11-oxoolean-12-en-30-oic acid] was tested. Which IC50 (HT-29 cells) did it give?
Its IC50 is 15 ± 1.26 µM.

What about the “inhibition rate against Hela” value (Hela cells [1]; 12.5 μM) of the same compound?
The value was 59.20%.

What about the IC50 (Hela cells [1]; MTT, 72 h, mean ± SD (n = 3)) of the same compound?
The IC50 was 8.54 ± 1.44 µM.

What about the “signs of toxicity or deaths” value (Kunming mice; maximum tolerated dose 3 g/kg oral (gavage), 2 weeks observation, mice) of the same compound?
The value was “no signs of toxicity or deaths were observed”.

And the LD50 (Kunming mice; oral administration in mice)?
Its LD50 is “exceeded 3.0 g/kg”.

What about the “inhibition rate against HY926” value (HY926 cells; 12.5 μM) of the same compound?
The value was 20.20%.

And the IC50 (HY926 cells; [5])?
Its IC50 is 27.7 ± 1.39 µM.

What about the “nuclear changes by H33342 staining” value (Hela cells [2]) of the same compound?
Its value is “the nuclear fragmentation, the cytoplasmic shrinkage, and the shape of apoptotic cells became irregular”.

And the “inhibition rate against MDCK” value (MDCK cells; 12.5 μM)?
Its value is 38.56%.

And the IC50 (MDCK cells; [5])?
The IC50 was 31.8 ± 2.79 µM.

What about the IC50 (HepG2 cells) of the same compound?
Its IC50 is 21.5 ± 1.5 µM.

What about the apoptosis ratio (Hela cells [3]; 5 μM) of the same compound?
The apoptosis ratio was 15.7%.

And the apoptosis ratio (Hela cells [3]; 10 μM)?
The apoptosis ratio was 27.7%.

What about the apoptosis ratio (Hela cells [3]; 20 μM) of the same compound?
Its apoptosis ratio is 60%.

And the “caspase-3 activities in Hela cells” value (caspase-3)?
Its value is “enhanced in a concentration-dependent manner”.

What about the “morphological changes by Giemsa staining” value (Hela cells [4]) of the same compound?
Its value is “cell loss, nuclei lysis, chromatin condensation and cytoplasmic shrinkage were aggravated”.

And the “inhibition rate against H9C2” value (H9C2 cells; 12.5 μM)?
The value was 3.56%.

What about the IC50 (H9C2 cells; [5]) of the same compound?
Its IC50 is > 50 µM.
